Test results reported in ChEMBL document CHEMBL1201862, “PubChem BioAssay data set” (2004).
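These data come from cells grown in 96-well plates and exposed to compound for 48 hours at five concentrations. GI50 = concentration required for 50% inhibition of growth.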 The source made the active and inactive calls. Cut-off read from the data, not from the text of the source: active = GI50 up to about 1.1 µM and inactive = higher.

What was measured:
Assay in all cases: NCI-60 cell line screen, 48 h
BT-549 = test system: BT-549
CAKI-1 = test system: CAKI-1
CCRF-CEM = test system: CCRF-CEM
DU-145 = test system: DU-145
HOP-62 = test system: HOP-62
HOP-92 = test system: HOP-92
IGROV-1 = test system: IGROV-1
K562 = test system: K562
M14 = test system: M14
Malme-3M = test system: Malme-3M
NCI-H522 = test system: NCI-H522
NCI/ADR-RES = test system: NCI/ADR-RES
OVCAR-3 = test system: OVCAR-3
OVCAR-4 = test system: OVCAR-4
PC-3 = test system: PC-3
SF-295 = test system: SF-295
SK-MEL-2 = test system: SK-MEL-2
SNB-19 = test system: SNB-19
T47D = test system: T47D
UACC-62 = test system: UACC-62

| Compound | GI50 (BT-549) | GI50 (CAKI-1) | GI50 (CCRF-CEM) | GI50 (DU-145) | GI50 (HOP-62) | GI50 (HOP-92) | GI50 (IGROV-1) | GI50 (K562) | GI50 (M14) | GI50 (Malme-3M) | GI50 (NCI-H522) | GI50 (NCI/ADR-RES) | GI50 (OVCAR-3) | GI50 (OVCAR-4) | GI50 (PC-3) | GI50 (SF-295) | GI50 (SK-MEL-2) | GI50 (SNB-19) | GI50 (T47D) | GI50 (UACC-62) |
| --- | --- | --- | --- | --- | --- | --- | --- | --- | --- | --- | --- | --- | --- | --- | --- | --- | --- | --- | --- | --- |
| N=c1oc2ccccc2cc1C(=O)NC12CC3CC(CC(C3)C1)C2 | 18.2 µM (inactive) | 7.52 µM (inactive) | 3.18 µM (inactive) | 13.2 µM (inactive) | 22.6 µM (inactive) | 25.8 µM (inactive) | 16.5 µM (inactive) | 13.9 µM (inactive) | 25.7 µM (inactive) | 32.1 µM (inactive) | 3.55 µM (inactive) | 24.2 µM (inactive) | 12.5 µM (inactive) | 19.9 µM (inactive) | 17.8 µM (inactive) | 20.6 µM (inactive) | 14 µM (inactive) | 24.4 µM (inactive) | 4.52 µM (inactive) | 15.8 µM (inactive) |
| COc1ccc(/C=C2/CSC/C(=C/c3ccc(OC)c(OC)c3)C2=O)cc1OC | 2.88 µM (inactive) | 3.49 µM (inactive) | 0.849 µM (active) | 2.88 µM (inactive) | 3.67 µM (inactive) | 8.93 µM (inactive) | 2.28 µM (inactive) | 1.42 µM (inactive) | 3.04 µM (inactive) | 4.71 µM (inactive) | 2.26 µM (inactive) | 1.66 µM (inactive) | 2 µM (inactive) | 1.71 µM (inactive) | 3.03 µM (inactive) | 2.44 µM (inactive) | 2.56 µM (inactive) | 3.5 µM (inactive) | 2.21 µM (inactive) | 1.69 µM (inactive) |
| CN(C)CCCC12CCCCC1=Nc1ccccc12 (stereo not given) | > 100 µM (inactive) | > 100 µM (inactive) | 76.6 µM (inactive) | > 100 µM (inactive) | > 100 µM (inactive) | > 100 µM (inactive) | > 100 µM (inactive) | 74 µM (inactive) | > 100 µM (inactive) | > 100 µM (inactive) | 97.7 µM (inactive) | > 100 µM (inactive) | > 100 µM (inactive) | > 100 µM (inactive) | > 100 µM (inactive) | > 100 µM (inactive) | > 100 µM (inactive) | > 100 µM (inactive) | > 100 µM (inactive) | > 100 µM (inactive) |
| COc1cc(S(=O)(=O)Nc2ccc(-c3csc(/N=C\c4cccc(Oc5ccccc5)c4)n3)cc2)ccc1Cl | 32.7 µM (inactive) | 74.8 µM (inactive) | 32 µM (inactive) | 25.5 µM (inactive) | 44.9 µM (inactive) | 20.1 µM (inactive) | 28.8 µM (inactive) | 22.6 µM (inactive) | 17 µM (inactive) | 47.8 µM (inactive) | 26.1 µM (inactive) | 96.4 µM (inactive) | 31.9 µM (inactive) | 41.8 µM (inactive) | 36.7 µM (inactive) | 47.1 µM (inactive) | 40.5 µM (inactive) | 8.85 µM (inactive) | 16.2 µM (inactive) | 6.44 µM (inactive) |
| CCC(N)(C(=O)O)C(C)C (stereo not given) | > 100 µM (inactive) | > 100 µM (inactive) | > 100 µM (inactive) | > 100 µM (inactive) | > 100 µM (inactive) | 34.8 µM (inactive) | > 100 µM (inactive) | > 100 µM (inactive) | > 100 µM (inactive) | > 100 µM (inactive) | > 100 µM (inactive) | > 100 µM (inactive) | > 100 µM (inactive) | > 100 µM (inactive) | > 100 µM (inactive) | > 100 µM (inactive) | > 100 µM (inactive) | > 100 µM (inactive) | > 100 µM (inactive) | > 100 µM (inactive) |
| O=Nc1ccc(O)c2ncccc12 | 10.5 µM (inactive) | 16.3 µM (inactive) | 0.611 µM (active) | 5.7 µM (inactive) | 2.8 µM (inactive) | 3.09 µM (inactive) | 5.46 µM (inactive) | 0.711 µM (active) | 6.03 µM (inactive) | 11.8 µM (inactive) | 1.43 µM (inactive) | 3.85 µM (inactive) | 3.33 µM (inactive) | 11.6 µM (inactive) | 14.7 µM (inactive) | 8.05 µM (inactive) | 2.21 µM (inactive) | 16 µM (inactive) | 7.53 µM (inactive) | 0.875 µM (active) |
| C/C(=N\Nc1nc2ccccc2o1)c1ccncn1 | 5.19 µM (inactive) | 0.0471 µM (active) | 0.0481 µM (active) | 1.26 µM (inactive) | 0.228 µM (active) | 0.124 µM (active) | 0.116 µM (active) | 0.0514 µM (active) | 0.126 µM (active) | 0.124 µM (active) | 0.0419 µM (active) | 0.19 µM (active) | 0.0524 µM (active) | 0.129 µM (active) | 0.31 µM (active) | 0.363 µM (active) | 0.277 µM (active) | 0.432 µM (active) | 0.0845 µM (active) | 0.28 µM (active) |
| SC1=Nc2ccccc2-c2nc(-c3cccc(Cl)c3)cc(-c3ccccc3)c2C1 | 5 µM (inactive) | 2 µM (inactive) | 2.36 µM (inactive) | 5.36 µM (inactive) | 1.86 µM (inactive) | 1.09 µM (active) | 0.678 µM (active) | 4.86 µM (inactive) | 4.61 µM (inactive) | 4.35 µM (inactive) | 2.06 µM (inactive) | 2.04 µM (inactive) | 3.4 µM (inactive) | 0.347 µM (active) | 7.57 µM (inactive) | 3.37 µM (inactive) | 5.25 µM (inactive) | 1.2 µM (inactive) | 2.19 µM (inactive) | 1.61 µM (inactive) |
| C#C[C@]1(O)CC[C@H]2[C@@H]3CCC4=C/C(=N/CCOC(=O)c5cccc6c(=O)c7ccccc7[nH]c56)CC[C@@H]4[C@H]3CC[C@@]21C | 32.3 µM (inactive) | 51.3 µM (inactive) | 35.7 µM (inactive) | 32.4 µM (inactive) | 37.2 µM (inactive) | 23.1 µM (inactive) | 29.5 µM (inactive) | 36.4 µM (inactive) | 41.7 µM (inactive) | 34.6 µM (inactive) | 31.4 µM (inactive) | 40.9 µM (inactive) | 33.5 µM (inactive) | 32.7 µM (inactive) | 18.4 µM (inactive) | 23 µM (inactive) | 30.1 µM (inactive) | 90.2 µM (inactive) | 20.5 µM (inactive) | 36.8 µM (inactive) |
| [Se]=P(c1ccccc1)(c1ccccc1)c1ccc(C(c2ccccc2)=P(c2ccccc2)(c2ccccc2)c2ccccc2)cc1 | 0.929 µM (active) | 2.3 µM (inactive) | 0.495 µM (active) | 1.24 µM (inactive) | 1.13 µM (inactive) | 0.357 µM (active) | 0.773 µM (active) | 0.182 µM (active) | 1.54 µM (inactive) | 0.499 µM (active) | 0.33 µM (active) | 7.67 µM (inactive) | 0.621 µM (active) | 0.443 µM (active) | 0.8 µM (active) | 2.27 µM (inactive) | 0.957 µM (active) | 1.01 µM (active) | 0.537 µM (active) | 1.02 µM (active) |
